We go through four molecules from patent publication US20250313572A1, “MACROCYCLIC MCL-1 INHIBITORS AND METHODS OF USE” (AbbVie Inc., priority 2017, published 2025).

Assay [1] deals with NCI-H929 human multiple myeloma tumor cell line. The assay is described as follows: NCI-H929 cell viability assay (CellTiter-Glo, 24 hours). As to conditions: Homo sapiens, NCI-H929, 24 h, read-out: H929 Viability IC50 (μM, 10% FBS), 10% FBS, 24 hours of compound treatment. The assay is classed as cell-based.
In a further assay the target is GST-MCL-1 (Homo sapiens, UniProt Q07820). The assay is described as follows: TR-FRET MCL-1 binding assay (competition with probe F-Bak). The gist of the method:
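Displacement of F-Bak from GST-MCL-1 is detected by time-resolved FRET with a Tb-labelled anti-GST antibody, with excitation 340/35 nm and emission 520/525 and 495/510 nm, after 2 hours at room temperature. Compounds were titrated in 11 three-fold steps starting at 25 μM final, in buffer alone or in 10% HS.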

For assay [2], the system named is AMO-1 human multiple myeloma tumor cell line. Nature of the assay: AMO-1 cell viability assay (CellTiter-Glo, 24 hours). The assay is classed as cell-based. Conditions: Homo sapiens, AMO1, 24 h, read-out: AMO-1 Viability IC50 (μM, 10% FBS), 10% FBS, 24 hours of compound treatment.
Setting [3] is: MCL-1 Binding Ki (nM, 10% HS), in the presence of 10% HS (human serum).
Setting [4] is: without HS, read-out: MCL-1 Binding Ki.

Molecules are shown by their SMILES. Where two headings read alike, the source gives them in different places.

Chain of GST-MCL-1 (Q07820 whole entry): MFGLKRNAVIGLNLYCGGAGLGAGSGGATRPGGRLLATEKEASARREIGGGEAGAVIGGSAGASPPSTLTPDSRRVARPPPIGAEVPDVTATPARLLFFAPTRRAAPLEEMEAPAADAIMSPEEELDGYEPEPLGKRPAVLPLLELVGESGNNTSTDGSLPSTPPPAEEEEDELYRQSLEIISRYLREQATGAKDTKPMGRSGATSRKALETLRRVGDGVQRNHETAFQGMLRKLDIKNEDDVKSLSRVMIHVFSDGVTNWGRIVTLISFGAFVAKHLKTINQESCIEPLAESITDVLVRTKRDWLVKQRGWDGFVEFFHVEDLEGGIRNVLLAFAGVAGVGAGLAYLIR

As for `COCCOCCOCCOCCN(CCOCCOCCOCCOC)c1nccc(COc2ccc3cc2C[C@H](C(=O)O)Oc2ncnc4sc(-c5ccc(F)cc5)c(c24)-c2c(C)c(Cl)c(c(Cl)c2C)O[C@H](CN2CCN(C)CC2)CO3)n1` [Example 109, (7R,16R)-10-({2-[bis(2,5,8,11-tetraoxatridecan-13-yl)amino]pyrimidin-4-yl}methoxy)-19,23-dichloro-1-(4-fluorophenyl)-20,22-dimethyl-16-[(4-methylpiperazin-1-yl)methyl]-7,8,15,16-tetrahydro-18,21-etheno-13,9-(metheno)-6,14,17-trioxa-2-thia-3,5-diazacyclononadeca[1,2,3-cd]indene-7-carboxylic Acid], the results for the concentration for half-maximal inhibition (IC50) in assay [1] and in assay [2] were 0.0128 µM and 0.0166 µM, respectively. Moreover, the results for the Ki at GST-MCL-1 (setting [3]) and on GST-MCL-1 (setting [4]) were 2.43 nM and 0.104 nM, respectively.

Regarding `COCC(COC)Oc1ccc(-c2nccc(COc3ccc4cc3C[C@H](C(=O)O)Oc3ncnc5sc(-c6ccc(F)cc6)c(c35)-c3c(C)c(Cl)c(c(Cl)c3C)O[C@H](CN3CCN(C)CC3)CO4)n2)cc1` [Example 110, (7R,16R)-19,23-dichloro-10-[(2-{4-[(1,3-dimethoxypropan-2-yl)oxy]phenyl}pyrimidin-4-yl)methoxy]-1-(4-fluorophenyl)-20,22-dimethyl-16-[(4-methylpiperazin-1-yl)methyl]-7,8,15,16-tetrahydro-18,21-etheno-9,13-(metheno)-6,14,17-trioxa-2-thia-3,5-diazacyclononadeca[1,2,3-cd]indene-7-carboxylic Acid], the half-maximal inhibitory concentration (IC50) is 0.00103 µM in assay [1] and 0.000306 µM in assay [2]. For the same molecule, the Ki at GST-MCL-1 (setting [3]) came to 49.9 nM; at GST-MCL-1 (setting [4]), 9.63 nM.

In the case of `COCCOCCOCCOCCOCCOC[C@]1(F)CC[C@@H](c2nccc(COc3ccc4cc3C[C@H](C(=O)O)Oc3ncnc5sc(-c6ccc(F)cc6)c(c35)-c3c(C)c(Cl)c(c(Cl)c3C)O[C@H](CN3CCN(C)CC3)CO4)n2)CC1` [Example 113, (7R,16R)-19,23-dichloro-10-({2-[(1s,4s)-4-fluoro-4-(2,5,8,11,14,17-hexaoxaoctadecan-1-yl)cyclohexyl]pyrimidin-4-yl}methoxy)-1-(4-fluorophenyl)-20,22-dimethyl-16-[(4-methylpiperazin-1-yl)methyl]-7,8,15,16-tetrahydro-18,21-etheno-13,9-(metheno)-6,14,17-trioxa-2-thia-3,5-diazacyclononadeca[1,2,3-cd]indene-7-carboxylic Acid], the figures for the IC50 in assay [1] and in assay [2] were 0.00064 µM and 0.00028 µM, respectively. Besides, the Ki was found to be 0.065 nM on GST-MCL-1 (setting [3]) and 0.016 nM at GST-MCL-1 (setting [4]).

Turning to `Cc1c(Cl)c2c(Cl)c(C)c1-c1c(-c3ccc(F)cc3)sc3ncnc(c13)O[C@@H](C(=O)O)Cc1cc(ccc1OCc1ccnc(N3CCOCCOCCOCCOCC3)n1)OC[C@@H](CN1CCN(C)CC1)O2` [Example 115, (7R,16R)-19,23-dichloro-1-(4-fluorophenyl)-20,22-dimethyl-16-[(4-methylpiperazin-1-yl)methyl]-10-{[2-(1,4,7,10-tetraoxa-13-azacyclopentadecan-13-yl)pyrimidin-4-yl]methoxy}-7,8,15,16-tetrahydro-18,21-etheno-13,9-(metheno)-6,14,17-trioxa-2-thia-3,5-diazacyclononadeca[1,2,3-cd]indene-7-carboxylic Acid], the IC50 in assay [1] worked out at 0.00113 µM; in assay [2] it was 0.000593 µM. The inhibition constant Ki on GST-MCL-1 (setting [3]) came to 0.862 nM; at GST-MCL-1 (setting [4]), 0.093 nM.
